Measurements as given in ChEMBL document CHEMBL5465560, “Selectivity Literature for EUbOPEN Chemogenomic Library” (2024).
Each block holds one compound with its values, some of them ahead of it.

How the values were obtained:
[1] = target: Wee1-like protein kinase (Homo sapiens) (UniProt P30291); assay: Selectivity interaction (Ambit KINOMEscan and KiNATiv profiling in Jurkat cells) EUB0000090b WEE1; format: cell-based; details: at 1 µM
[2] = target: T1, Histone-lysine N-methyltransferase SUV39H1 (Homo sapiens) (UniProt O43463); assay: Selectivity interaction (Transferase panel (protein, RNA, and DNA methyltransferases. and EP300 (acetyltransferase))) EUB0000270b SUV39H1
T1 sequence (whole entry): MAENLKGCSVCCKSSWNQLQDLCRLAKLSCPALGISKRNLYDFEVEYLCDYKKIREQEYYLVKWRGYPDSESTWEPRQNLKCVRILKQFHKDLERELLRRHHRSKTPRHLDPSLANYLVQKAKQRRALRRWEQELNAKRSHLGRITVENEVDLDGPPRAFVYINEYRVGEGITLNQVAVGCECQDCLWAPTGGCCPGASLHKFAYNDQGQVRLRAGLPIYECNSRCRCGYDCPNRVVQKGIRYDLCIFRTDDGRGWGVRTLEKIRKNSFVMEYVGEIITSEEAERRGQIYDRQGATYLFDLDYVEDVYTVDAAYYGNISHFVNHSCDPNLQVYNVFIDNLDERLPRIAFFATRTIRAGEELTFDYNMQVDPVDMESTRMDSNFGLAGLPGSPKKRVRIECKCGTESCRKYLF

[3] = target: Serine/threonine-protein kinase pim-1 (Homo sapiens, UniProt P11309); assay: Selectivity interaction (Kinase panel (literature)) EUB0001199aCl PIM1; details: at 1 µM
Serine/threonine-protein kinase pim-1, sequence (P11309 whole entry, looked up): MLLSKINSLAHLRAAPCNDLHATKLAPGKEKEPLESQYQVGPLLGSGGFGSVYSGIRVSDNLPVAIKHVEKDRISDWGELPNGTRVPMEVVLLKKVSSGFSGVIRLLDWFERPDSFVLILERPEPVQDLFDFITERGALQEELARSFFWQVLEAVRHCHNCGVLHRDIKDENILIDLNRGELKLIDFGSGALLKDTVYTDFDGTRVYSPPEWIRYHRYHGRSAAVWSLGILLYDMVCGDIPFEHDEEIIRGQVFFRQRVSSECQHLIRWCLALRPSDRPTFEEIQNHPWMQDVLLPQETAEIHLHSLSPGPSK

[4] = target: T2, Megakaryocyte-associated tyrosine-protein kinase (Homo sapiens) (UniProt P42679); assay: Selectivity interaction (KinomeScan (DiscoverX)) EUB0000595a MATK; details: at 10 µM
T2 sequence (whole entry): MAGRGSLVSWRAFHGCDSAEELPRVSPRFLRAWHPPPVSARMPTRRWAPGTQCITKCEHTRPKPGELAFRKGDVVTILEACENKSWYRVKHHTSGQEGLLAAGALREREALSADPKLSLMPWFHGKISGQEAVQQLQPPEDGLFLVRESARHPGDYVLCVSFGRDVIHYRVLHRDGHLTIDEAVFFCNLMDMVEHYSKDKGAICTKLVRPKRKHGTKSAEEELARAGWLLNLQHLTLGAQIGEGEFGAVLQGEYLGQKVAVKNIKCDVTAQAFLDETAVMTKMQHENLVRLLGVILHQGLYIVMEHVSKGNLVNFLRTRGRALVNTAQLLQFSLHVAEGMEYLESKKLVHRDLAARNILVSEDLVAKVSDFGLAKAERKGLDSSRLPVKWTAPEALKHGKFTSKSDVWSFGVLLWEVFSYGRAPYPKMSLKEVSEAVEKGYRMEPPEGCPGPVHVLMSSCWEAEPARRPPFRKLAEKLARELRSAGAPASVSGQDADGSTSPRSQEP

[5] = target: T3, Mitogen-activated protein kinase kinase kinase 2 (Homo sapiens) (UniProt Q9Y2U5); assay: Selectivity interaction (KinomeScan (DiscoverX)) EUB0000229b MAP3K2; details: at 10 µM
T3 sequence (whole entry): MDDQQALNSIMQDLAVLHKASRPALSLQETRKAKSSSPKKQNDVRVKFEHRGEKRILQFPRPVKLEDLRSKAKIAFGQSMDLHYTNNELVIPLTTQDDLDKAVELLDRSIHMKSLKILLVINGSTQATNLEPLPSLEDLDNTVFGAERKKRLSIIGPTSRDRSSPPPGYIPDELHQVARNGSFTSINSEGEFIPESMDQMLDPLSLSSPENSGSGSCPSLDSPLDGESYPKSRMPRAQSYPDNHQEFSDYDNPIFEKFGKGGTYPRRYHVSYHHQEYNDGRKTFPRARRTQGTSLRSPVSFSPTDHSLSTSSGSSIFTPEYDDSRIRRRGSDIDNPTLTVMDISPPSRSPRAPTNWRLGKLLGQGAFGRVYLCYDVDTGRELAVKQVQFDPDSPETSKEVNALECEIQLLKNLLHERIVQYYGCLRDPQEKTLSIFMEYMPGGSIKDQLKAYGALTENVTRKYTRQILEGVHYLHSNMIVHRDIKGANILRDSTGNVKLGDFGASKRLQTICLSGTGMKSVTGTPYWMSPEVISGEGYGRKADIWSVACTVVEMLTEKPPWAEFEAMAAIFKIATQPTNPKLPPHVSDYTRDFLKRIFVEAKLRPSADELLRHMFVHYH

[6] = target: MAP kinase-interacting serine/threonine-protein kinase 1 (Homo sapiens) (UniProt Q9BUB5); assay: Selectivity interaction (KinomeScan (DiscoverX)) EUB0000655a MKNK1; details: at 10 µM
MAP kinase-interacting serine/threonine-protein kinase 1 (Homo sapiens), sequence (Q9BUB5 whole entry, looked up): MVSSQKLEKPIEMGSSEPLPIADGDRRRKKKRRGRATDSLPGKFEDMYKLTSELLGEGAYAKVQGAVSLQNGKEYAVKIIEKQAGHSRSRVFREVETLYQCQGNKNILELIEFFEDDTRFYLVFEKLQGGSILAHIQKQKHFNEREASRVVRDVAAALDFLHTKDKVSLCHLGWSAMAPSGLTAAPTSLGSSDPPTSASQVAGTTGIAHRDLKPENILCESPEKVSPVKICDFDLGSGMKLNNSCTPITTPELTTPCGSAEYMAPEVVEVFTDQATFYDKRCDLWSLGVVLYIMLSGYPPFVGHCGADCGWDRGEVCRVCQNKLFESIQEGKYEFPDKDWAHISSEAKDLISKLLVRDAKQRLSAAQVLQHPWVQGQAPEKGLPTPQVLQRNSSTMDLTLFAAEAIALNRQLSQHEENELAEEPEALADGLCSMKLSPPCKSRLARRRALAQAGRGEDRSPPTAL

[7] = target: Interferon-induced, double-stranded RNA-activated protein kinase (Homo sapiens) (UniProt P19525); assay: Selectivity interaction (KinomeScan (DiscoverX)) EUB0000607a EIF2AK2; details: at 10 µM
Interferon-induced, double-stranded RNA-activated protein kinase (Homo sapiens), sequence (P19525 whole entry): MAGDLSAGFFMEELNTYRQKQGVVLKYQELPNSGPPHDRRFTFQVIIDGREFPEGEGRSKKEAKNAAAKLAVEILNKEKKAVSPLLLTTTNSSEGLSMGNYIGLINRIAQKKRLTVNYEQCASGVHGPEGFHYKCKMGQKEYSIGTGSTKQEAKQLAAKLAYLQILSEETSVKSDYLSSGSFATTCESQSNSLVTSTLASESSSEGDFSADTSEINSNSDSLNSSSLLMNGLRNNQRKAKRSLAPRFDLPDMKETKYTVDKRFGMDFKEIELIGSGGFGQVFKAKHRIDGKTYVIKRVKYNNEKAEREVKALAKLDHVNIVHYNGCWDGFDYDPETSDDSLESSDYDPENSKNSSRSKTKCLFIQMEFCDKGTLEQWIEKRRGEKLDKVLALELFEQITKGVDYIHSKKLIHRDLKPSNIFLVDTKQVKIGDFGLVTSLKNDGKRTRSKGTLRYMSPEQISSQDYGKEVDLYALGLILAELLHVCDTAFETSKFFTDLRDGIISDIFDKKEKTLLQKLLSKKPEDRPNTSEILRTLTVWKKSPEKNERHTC

[8] = target: Ribosomal protein S6 kinase alpha-5 (Homo sapiens) (UniProt O75582); assay: Selectivity interaction (KinomeScan (DiscoverX)) EUB0000666a RPS6KA5; details: at 10 µM
Ribosomal protein S6 kinase alpha-5 (Homo sapiens), sequence (O75582 whole entry, looked up): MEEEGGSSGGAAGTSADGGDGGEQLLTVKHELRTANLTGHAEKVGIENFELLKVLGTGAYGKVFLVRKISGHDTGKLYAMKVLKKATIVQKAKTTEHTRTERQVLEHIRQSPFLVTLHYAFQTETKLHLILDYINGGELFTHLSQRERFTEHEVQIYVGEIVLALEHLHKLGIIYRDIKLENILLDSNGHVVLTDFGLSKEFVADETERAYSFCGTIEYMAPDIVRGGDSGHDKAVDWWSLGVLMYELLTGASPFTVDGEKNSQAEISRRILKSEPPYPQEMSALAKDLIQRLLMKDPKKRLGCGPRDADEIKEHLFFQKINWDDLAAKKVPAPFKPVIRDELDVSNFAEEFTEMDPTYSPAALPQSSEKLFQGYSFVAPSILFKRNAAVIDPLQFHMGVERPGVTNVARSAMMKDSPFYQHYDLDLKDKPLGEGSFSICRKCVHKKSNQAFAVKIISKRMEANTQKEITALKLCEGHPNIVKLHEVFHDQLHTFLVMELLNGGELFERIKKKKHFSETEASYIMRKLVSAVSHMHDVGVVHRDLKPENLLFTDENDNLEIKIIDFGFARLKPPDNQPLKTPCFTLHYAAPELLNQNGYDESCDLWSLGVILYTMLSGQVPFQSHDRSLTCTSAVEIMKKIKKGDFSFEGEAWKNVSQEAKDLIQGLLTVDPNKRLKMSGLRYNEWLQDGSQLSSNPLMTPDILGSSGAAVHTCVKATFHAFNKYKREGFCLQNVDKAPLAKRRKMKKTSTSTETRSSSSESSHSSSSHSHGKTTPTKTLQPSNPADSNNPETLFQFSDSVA

Wee1-like protein kinase (Homo sapiens), sequence (P30291 whole entry, looked up): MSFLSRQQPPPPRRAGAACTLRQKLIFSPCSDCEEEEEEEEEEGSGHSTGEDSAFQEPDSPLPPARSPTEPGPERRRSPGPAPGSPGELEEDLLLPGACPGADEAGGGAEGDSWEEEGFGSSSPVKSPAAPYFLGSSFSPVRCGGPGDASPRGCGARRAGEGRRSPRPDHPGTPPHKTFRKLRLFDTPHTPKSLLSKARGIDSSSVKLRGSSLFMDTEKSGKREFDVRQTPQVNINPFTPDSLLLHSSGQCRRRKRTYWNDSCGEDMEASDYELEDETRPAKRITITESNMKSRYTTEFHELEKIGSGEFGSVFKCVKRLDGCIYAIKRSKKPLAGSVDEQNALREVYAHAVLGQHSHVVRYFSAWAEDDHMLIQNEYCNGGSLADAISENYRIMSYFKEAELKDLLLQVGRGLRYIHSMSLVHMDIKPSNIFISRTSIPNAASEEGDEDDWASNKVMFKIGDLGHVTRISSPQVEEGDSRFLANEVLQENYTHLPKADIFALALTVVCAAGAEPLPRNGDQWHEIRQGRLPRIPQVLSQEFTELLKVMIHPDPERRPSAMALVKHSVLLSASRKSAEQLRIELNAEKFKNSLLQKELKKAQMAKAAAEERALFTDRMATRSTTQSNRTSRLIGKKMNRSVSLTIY

Compound: CN(C)C/C=C/C(=O)Nc1ccc(C(=O)N2CCCC(Nc3ncc(Cl)c(-c4c[nH]c5ccccc45)n3)C2)cc1 (centres undefined)
% of control [1]: 77%

% activity ([2]; at 1 µM): > 90%
% activity ([2]; at 10 µM): > 80%
Compound: Cc1cc(CN)cc(C)c1-c1ncn(C)c1-c1cncn1C

% of inhibition [3]: 4%
Compound: CN1Cc2nccc(-c3cn(C)nc3-c3ccc(F)cc3)c2C1=O

Compound: COCC(=O)NC/C=C/c1ccc2ncnc(Nc3ccc(Oc4ccc(C)nc4)c(C)c3)c2c1 [CP-724714]
% of control [4]: 100%

Compound: COc1cc(N(C)c2ccnc3ccc(C(F)(F)F)cc23)cc(OC)c1OC
% binding [5]: 52%

Compound: CN(C)CCOc1ccc(-c2nc(-c3ccncc3)c(-c3ccc4c(c3)CC/C4=N\O)[nH]2)cc1
% of control [6]: 81%

Compound: CNC(=O)Nc1ccc(-c2nc(N3CC4CCC(C3)O4)c3cnn(C4CCC5(CC4)OCCO5)c3n2)cc1
% of control [7]: 100%

Compound: O=C(NOC[C@H](O)CO)c1ccc(F)c(F)c1Nc1ccc(I)cc1F
% of control [8]: 87%
